Reference: PMC8245078, “Development of novel benzofuran-isatin conjugates as potential antiproliferative agents with apoptosis inducing mechanism in Colon cancer” (Journal of Enzyme Inhibition and Medicinal Chemistry, 2021)
Like-named read-outs stand apart in the source and are kept apart here.

How the values were obtained:
Format in all cases: cell-based
CCRF-CEM = test: NCI single dose screening (10 µM); conditions: Homo sapiens, read-out: GI% (cell growth inhibition percentage)
MCF7 = test: NCI single dose screening (10 µM); conditions: Homo sapiens
NCI-H522 = test: NCI single dose screening (10 µM); conditions: Homo sapiens
SNB-19 = test: NCI single dose screening (10 µM); conditions: Homo sapiens
NCI-H460 = test: NCI single dose screening (10 µM); conditions: Homo sapiens
NCI-H23 = test: NCI single dose screening (10 µM); conditions: Homo sapiens
786-0 = test: NCI single dose screening (10 µM); conditions: Homo sapiens
RXF 393 = test: NCI single dose screening (10 µM); conditions: Homo sapiens
SK-MEL-2 = test: NCI single dose screening (10 µM); conditions: Homo sapiens
UACC-62 = test: NCI single dose screening (10 µM); conditions: Homo sapiens
OVCAR-8 = test: NCI single dose screening (10 µM); conditions: Homo sapiens
TK-10 = test: NCI single dose screening (10 µM); conditions: Homo sapiens
KM12 = test: NCI single dose screening (10 µM); conditions: Homo sapiens
PC-3 = test: NCI single dose screening (10 µM); conditions: Homo sapiens
A549/ATCC = test: NCI single dose screening (10 µM); conditions: Homo sapiens
NCI/ADR-RES = test: NCI single dose screening (10 µM); conditions: Homo sapiens, read-out: GI% (cell growth inhibition percentage)
HCT-116 = test: NCI single dose screening (10 µM); conditions: Homo sapiens
HCT-15 = test: NCI single dose screening (10 µM); conditions: Homo sapiens
[1] = tested on: NCI-55 cancer cell line panel; test: NCI single dose screening (10 µM), whole panel; conditions: Homo sapiens, read-out: Mean inhibition, % (mean GI%)
HOP-62 = test: NCI single dose screening (10 µM); conditions: Homo sapiens
LOX IMVI = test: NCI single dose screening (10 µM); conditions: Homo sapiens, read-out: GI% (cell growth inhibition percentage)
UACC-257 = test: NCI single dose screening (10 µM); conditions: Homo sapiens
[2] = MCF7, Breast cancer, single dose 10^−5 M, read-out: GI% (cell growth inhibition percentage)
[3] = NCI-H522, Non-small cell lung cancer, single dose 10^−5 M, read-out: GI% (cell growth inhibition percentage)
[4] = SNB-19, CNS cancer, single dose 10^−5 M, read-out: GI% (cell growth inhibition percentage)
[5] = NCI-H460, Non-small cell lung cancer, single dose 10^−5 M, read-out: GI% (cell growth inhibition percentage)
[6] = NCI-H23, Non-small cell lung cancer, single dose 10^−5 M, read-out: GI% (cell growth inhibition percentage)
[7] = 786-0, Renal cancer, single dose 10^−5 M, read-out: GI% (cell growth inhibition percentage)
[8] = RXF 393, Renal cancer, single dose 10^−5 M, read-out: GI% (cell growth inhibition percentage)
[9] = SK-MEL-2, Melanoma, single dose 10^−5 M, read-out: GI% (cell growth inhibition percentage)
[10] = UACC-62, Melanoma, single dose 10^−5 M, read-out: GI% (cell growth inhibition percentage)
[11] = OVCAR-8, Ovarian cancer, single dose 10^−5 M, read-out: GI% (cell growth inhibition percentage)
[12] = TK-10, Renal cancer, single dose 10^−5 M, read-out: GI% (cell growth inhibition percentage)
[13] = KM12, Colon cancer, single dose 10^−5 M, read-out: GI% (cell growth inhibition percentage)
[14] = PC-3, Prostate cancer, single dose 10^−5 M, read-out: GI% (cell growth inhibition percentage)
[15] = A549/ATCC, Non-small cell lung cancer, single dose 10^−5 M, read-out: GI% (cell growth inhibition percentage)
[16] = Ovarian cancer, single dose 10^−5 M
[17] = HCT-116, Colon cancer, single dose 10^−5 M, read-out: GI% (cell growth inhibition percentage)
[18] = HCT-15, Colon cancer, single dose 10^−5 M, read-out: GI% (cell growth inhibition percentage)
[19] = mean over NCI-55 cell lines, single dose 10^−5 M
[20] = HOP-62, Non-small cell lung cancer, single dose 10^−5 M, read-out: GI% (cell growth inhibition percentage)
[21] = UACC-257, Melanoma, single dose 10^−5 M, read-out: GI% (cell growth inhibition percentage)

## CCCN1C(=O)/C(=N\NC(=O)c2oc3ccccc3c2C)c2ccccc21 [Compound 7b]
CCRF-CEM
  inhibition at 10 µM: < 10%
MCF7; MCF7, read-out: GI% (cell growth inhibition percentage)
  inhibition at 10 µM: 25%
NCI-H522; NCI-H522, read-out: GI% (cell growth inhibition percentage)
  inhibition at 10 µM: 10.3%
SNB-19; SNB-19, read-out: GI% (cell growth inhibition percentage)
  inhibition at 10 µM: < 10%
NCI-H460; NCI-H460, read-out: GI% (cell growth inhibition percentage)
  inhibition at 10 µM: 15.6%
NCI-H23; NCI-H23, read-out: GI% (cell growth inhibition percentage)
  inhibition at 10 µM: 15.1%
786-0; 786-0, read-out: GI% (cell growth inhibition percentage)
  inhibition at 10 µM: < 10%
RXF 393; RXF 393, read-out: GI% (cell growth inhibition percentage)
  inhibition at 10 µM: < 10%
SK-MEL-2; SK-MEL-2, read-out: GI% (cell growth inhibition percentage)
  inhibition at 10 µM: < 10%
UACC-62; UACC-62, read-out: GI% (cell growth inhibition percentage)
  inhibition at 10 µM: 16.9%
OVCAR-8; OVCAR-8, read-out: GI% (cell growth inhibition percentage)
  inhibition at 10 µM: < 10%
TK-10; TK-10, read-out: GI% (cell growth inhibition percentage)
  inhibition at 10 µM: < 10%
KM12; KM12, read-out: GI% (cell growth inhibition percentage)
  inhibition at 10 µM: < 10%
PC-3; PC-3, read-out: GI% (cell growth inhibition percentage)
  inhibition at 10 µM: 10.8%
A549/ATCC; A549, read-out: GI% (cell growth inhibition percentage)
  inhibition at 10 µM: < 10%
NCI/ADR-RES
  inhibition at 10 µM: 10.3%
HCT-116; HCT-116, read-out: GI% (cell growth inhibition percentage)
  inhibition at 10 µM: < 10%
HCT-15; HCT-15, read-out: GI% (cell growth inhibition percentage)
  inhibition at 10 µM: < 10%
[1]
  inhibition at 10 µM: 5.18%
HOP-62; HOP-62, read-out: GI% (cell growth inhibition percentage)
  inhibition at 10 µM: 18.1%
LOX IMVI
  inhibition at 10 µM: < 10%
UACC-257; UACC-257, read-out: GI% (cell growth inhibition percentage)
  inhibition at 10 µM: < 10%

## Cc1c(C(=O)N/N=C2\C(=O)Nc3ccc(F)cc32)oc2ccccc12 [Compound 5b]
CCRF-CEM; Leukaemia, single dose 10^−5 M
  inhibition at 10 µM: < 10%
MCF7; [2]
  inhibition at 10 µM: 19%
NCI-H522; [3]
  inhibition at 10 µM: 10.4%
SNB-19; [4]
  inhibition at 10 µM: < 10%
NCI-H460; [5]
  inhibition at 10 µM: < 10%
NCI-H23; [6]
  inhibition at 10 µM: < 10%
786-0; [7]
  inhibition at 10 µM: < 10%
RXF 393; [8]
  inhibition at 10 µM: < 10%
SK-MEL-2; [9]
  inhibition at 10 µM: < 10%
UACC-62; [10]
  inhibition at 10 µM: 10.9%
OVCAR-8; [11]
  inhibition at 10 µM: < 10%
TK-10; [12]
  inhibition at 10 µM: < 10%
KM12; [13]
  inhibition at 10 µM: < 10%
PC-3; [14]
  inhibition at 10 µM: < 10%
A549/ATCC; [15]
  inhibition at 10 µM: < 10%
NCI/ADR-RES; [16]
  inhibition at 10 µM: < 10%
HCT-116; [17]
  inhibition at 10 µM: < 10%
HCT-15; [18]
  inhibition at 10 µM: < 10%
[1]; [19]
  inhibition at 10 µM: 0.75%
HOP-62; [20]
  inhibition at 10 µM: < 10%
LOX IMVI; Melanoma, single dose 10^−5 M
  inhibition at 10 µM: < 10%
UACC-257; [21]
  inhibition at 10 µM: < 10%

## Cc1c(C(=O)N/N=C2\C(=O)Nc3ccc(Br)cc32)oc2ccccc12 [Compound 5c]
CCRF-CEM; Leukaemia, single dose 10^−5 M
  inhibition at 10 µM: < 10%
MCF7; [2]
  inhibition at 10 µM: 26.7%
NCI-H522; [3]
  inhibition at 10 µM: 10.3%
SNB-19; [4]
  inhibition at 10 µM: 31.5%
NCI-H460; [5]
  inhibition at 10 µM: 42.6%
NCI-H23; [6]
  inhibition at 10 µM: 33%
786-0; [7]
  inhibition at 10 µM: 34.7%
RXF 393; [8]
  inhibition at 10 µM: 11.1%
SK-MEL-2; [9]
  inhibition at 10 µM: < 10%
UACC-62; [10]
  inhibition at 10 µM: 30.9%
OVCAR-8; [11]
  inhibition at 10 µM: 22.5%
TK-10; [12]
  inhibition at 10 µM: < 10%
KM12; [13]
  inhibition at 10 µM: 20.5%
PC-3; [14]
  inhibition at 10 µM: 13.8%
A549/ATCC; [15]
  inhibition at 10 µM: 27.9%
NCI/ADR-RES; [16]
  inhibition at 10 µM: 29.3%
HCT-116; [17]
  inhibition at 10 µM: 32%
HCT-15; [18]
  inhibition at 10 µM: < 10%
[1]; [19]
  inhibition at 10 µM: 22%
HOP-62; [20]
  inhibition at 10 µM: 41.4%
LOX IMVI; Melanoma, single dose 10^−5 M
  inhibition at 10 µM: 33.8%
UACC-257; [21]
  inhibition at 10 µM: < 10%

## COc1ccc2c(c1)/C(=N/NC(=O)c1oc3ccccc3c1C)C(=O)N2 [Compound 5d]
CCRF-CEM; Leukaemia, single dose 10^−5 M
  inhibition at 10 µM: 42.9%
MCF7; [2]
  inhibition at 10 µM: 77.1%
NCI-H522; [3]
  inhibition at 10 µM: 45.7%
SNB-19; [4]
  inhibition at 10 µM: 57.3%
NCI-H460; [5]
  inhibition at 10 µM: 123%
NCI-H23; [6]
  inhibition at 10 µM: 89.3%
786-0; [7]
  inhibition at 10 µM: 167%
RXF 393; [8]
  inhibition at 10 µM: 136%
SK-MEL-2; [9]
  inhibition at 10 µM: 29.1%
UACC-62; [10]
  inhibition at 10 µM: 65.7%
OVCAR-8; [11]
  inhibition at 10 µM: 62.2%
TK-10; [12]
  inhibition at 10 µM: 194%
KM12; [13]
  inhibition at 10 µM: 56.2%
PC-3; [14]
  inhibition at 10 µM: 78.2%
A549/ATCC; [15]
  inhibition at 10 µM: 124%
NCI/ADR-RES; [16]
  inhibition at 10 µM: 69.5%
HCT-116; [17]
  inhibition at 10 µM: 129%
HCT-15; [18]
  inhibition at 10 µM: 50.9%
[1]; [19]
  inhibition at 10 µM: 87.3%
HOP-62; [20]
  inhibition at 10 µM: 124%
LOX IMVI; Melanoma, single dose 10^−5 M
  inhibition at 10 µM: 83.7%
UACC-257; [21]
  inhibition at 10 µM: 50%
